{"source": "patent US6534035B1", "about": "“Methods of inhibiting clot formation” (President and Fellows of Harvard College, priority 1998, dated 2003)", "key": {"FXIIIa": {"molecular_target": "T1, FXIIIa (Homo sapiens, UniProt P00488)", "T1 construct": "purchased American Diagnostica", "T1 sequence (P00488 39-732 limits assumed)": "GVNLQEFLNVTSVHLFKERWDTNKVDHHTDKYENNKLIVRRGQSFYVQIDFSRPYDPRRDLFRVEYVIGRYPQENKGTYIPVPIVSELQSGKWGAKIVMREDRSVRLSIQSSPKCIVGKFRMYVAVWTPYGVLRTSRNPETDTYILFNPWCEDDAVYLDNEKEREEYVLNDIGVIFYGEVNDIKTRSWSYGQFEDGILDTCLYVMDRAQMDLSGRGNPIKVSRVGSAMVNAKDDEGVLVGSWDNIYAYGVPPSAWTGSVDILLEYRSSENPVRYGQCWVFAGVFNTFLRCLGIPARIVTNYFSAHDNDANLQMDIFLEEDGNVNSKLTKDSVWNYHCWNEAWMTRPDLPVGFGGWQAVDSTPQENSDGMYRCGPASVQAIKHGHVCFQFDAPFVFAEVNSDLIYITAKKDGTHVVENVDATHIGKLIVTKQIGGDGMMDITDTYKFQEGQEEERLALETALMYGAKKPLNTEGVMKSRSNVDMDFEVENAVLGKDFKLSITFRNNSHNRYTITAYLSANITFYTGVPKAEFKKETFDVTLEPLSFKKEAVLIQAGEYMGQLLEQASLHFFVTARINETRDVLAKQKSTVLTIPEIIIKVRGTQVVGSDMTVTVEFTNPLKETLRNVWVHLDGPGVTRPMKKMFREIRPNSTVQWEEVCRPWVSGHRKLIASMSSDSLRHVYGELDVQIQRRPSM", "experiment": "FXIIIa catalytic half-life: crosslinking of substrates into fibrin clots of various ages", "type": "biochemical", "details": "substrate added to 2 or 4 hour old clots", "experimental": "Experiments were performed to determine how long FXIIIa in clots could crosslink various substrates such as human ^125I -α2AP, α2AP13-24 (SEQ ID NO:2), and 5-(biotinamido)pentylamine, into fibrin. In a typical experiment, clots were prepared (50 μl final volume) in duplicate by combining fibrinogen (2 mg/ml final), CaCl2 (2 mM final), buffer (Tris-buffered saline pH 7.4) and thrombin (1 U/ml) and incubating at 37° C. Synchronous with the addition of thrombin, or up to 240 minutes afterwards, the FXIIIa substrates 5-(biotinamido)pentylamine (0.5 mM final), ^125I -α2AP (70 μg/ml final), and α2AP13-24 (0 to 1 mM final) were mixed and added to the clot. In one set of control samples, FXIIIa was inhibited with iodoacetamide (10 mg/ml) prior to the addition of substrate; to another set, no substrate was added. After 2 hours of incubation at 37° C., iodoacetamide (10 mg/ml) was added to stop the reaction. The tubes were then centrifuged at 14,000 rpm for 2 minutes, washed and compressed in 1 ml saline to remove unbound proteins, and centrifuged again at 14,000 rpm for 2 minutes. After removal of the supernatant, the clots were solubilized in 100 μL of 9M urea, pH 9.0 at 37° C. for 60 minutes. Then 100 μl of SDS reducing sample buffer was added and the clots were placed at 85° C. for 30 minutes until fully solubilized. The samples were examined by SDS-PAGE. Crosslinked ^125I-α2AP was detected and quantitated by phosphorimaging. Samples containing crosslinked α2AP13-24 and pentylamine substrates were electroblotted to PVDF membranes and detected by ^125I-streptavidin followed by phosphorimaging or by streptavidin-peroxidase followed by the developing agents 5-bromo-4-chloro-3-indolyl phosphate-nitro blue tetrazolium using methods known in the art. In experiments examining the effect of specific amino acid residues on the crosslinking of the α2AP13-24 peptide (SEQ ID NO:2) to fibrin, crosslinking was detected by immunoblotting with an anti-peptide antibody directed against this epitope followed by ^125I-protein A and phosphorimaging. […]"}, "pulmonary emboli": {"system": "pulmonary emboli", "experiment": "Crosslinking of α2AP13-24 into pulmonary emboli in vivo", "set-up": "species or system ferret", "details": "0.5 mM dose of biotinylated peptide after embolization, 4 hours", "experimental": "To examine whether FXIIIa which formed thrombi in vivo retained the ability to crosslink substrates, the ferret pulmonary embolism model was used. Clots were formed by combining 45 μl of pooled human fresh frozen plasma with ^125I-labeled fibrinogen (˜100,000 cpm/clot), 2.5 μl of 0.4 M CaCl2, and 2.5 μl thrombin (1000 U/ml). The clots were incubated at 37° C. for 20 minutes, washed three times in saline, and 6 were embolized into the lungs of each animal. Three experimental groups were examined with 2 animals in each group. One group received normal clots and a solution of α2AP13-24 (SEQ ID NO:2) calculated to produce a final peptide concentration of 0.5 mM. Another group also received the same peptide concentration; prior to embolization, the clots in this group were washed in iodoacetamide (10 mg/ml) and EDTA (10 mM final) to inhibit clot associated FXIIIa. The third group received the blood clots but no peptide infusion afterward. Four hours after embolization, the ferrets were sacrificed by CO2 inhalation. The heart, lungs, and great vessels were removed and gamma-counted to locate the pulmonary emboli.\nLung tissue containing pulmonary emboli was localized with a Geiger counter, excised and weighed. […]"}}, "note": "Entries after “also recorded” stand apart in the source; their conditions may differ. Peptide text beside a SMILES is read from it. * marks the point of attachment. Biotin = O=C1N[C@H]2[C@H](CS[C@H]2CCCCC(=O)*)N1"}
{"molecule": "CC(C)C[C@H](NC(=O)[C@H](CC(C)C)NC(=O)[C@@H](NC(=O)[C@H](CC(C)C)NC(=O)[C@@H]1CCCN1C(=O)[C@H](CO)NC(=O)[C@@H](NC(=O)[C@H](CCC(N)=O)NC(=O)[C@H](CCC(=O)O)NC(=O)[C@H](CCC(N)=O)NC(=O)[C@@H](N)CC(N)=O)C(C)C)[C@@H](C)O)C(=O)N[C@@H](CCCCNC(=O)CCCC[C@@H]1SC[C@@H]2NC(=O)N[C@@H]21)C(=O)O", "note": "[α2AP13-24, NQEQVSPLTLLK] (H-NQEQVSPLTLLK(Biotin)-OH)", "values": [{"measurement": "residual FXIIIa crosslinking of substrate", "setting": "FXIIIa", "result": "little residual FXIIIa crosslinking"}, {"measurement": "incorporation of peptide into existing pulmonary emboli", "setting": "pulmonary emboli", "result": "specific staining was detected in the thrombus; also recorded: covalently incorporated"}]}
